{"source": "patent US6653081B2", "about": "“Methods for monitoring antiretroviral therapy and guiding therapeutic decision in the treatment of HIV/AIDS” (ViroLogic, Inc., priority 2000, dated 2003)", "origin": "cited, not measured here", "tested_on": "codon 181 mutant HIV-1", "conditions": "cited from earlier work"}
{"molecule": "CCc1cc(CCc2nc3ccccc3o2)c(=O)[nH]c1C", "note": "[L-696,229]", "values": [{"measurement": "susceptibility / activity in the presence of the Y181C mutation", "value": "reduced susceptibility"}]}
{"molecule": "CCc1cc(NCc2nc3c(Cl)ccc(Cl)c3o2)c(O)nc1C", "note": "[L-697,661]", "values": [{"measurement": "susceptibility / activity in the presence of the Y181C mutation", "value": "reduced susceptibility"}]}
